Assay results as given in patent publication US20150057354A1, “METHOD OF MAINTAINING OR IMPROVING TACTICAL PERFORMANCE AND COGNITIVE FUNCTION THROUGH DIETARY SUPPLEMENTATION” (Natural Alternatives International, Inc., priority 2013, published 2015).
Where two headings read alike, the source gives them in different places.

Key:
[1] = for High Running Velocity (>4.4 m · sec^−1): distance run at high velocity; for Low-Moderate Running Velocity (<4.4 m · sec^−1): distance run at low to moderate velocity
Description: Twenty male soldiers from a special operations unit of the Israel Defense Force (IDF) volunteered to participate in this study to examine the effect of 28 days of beta-alanine ingestion on physical, tactical, psychomotor and cognitive performance in military personnel. Following an explanation of all procedures, risks and benefits, each participant provided their informed consent to participate in the study. The Helsinki committee of the IDF Medical Corps approved the research protocol. […] Screening for performance enhancing drug use and additional supplementation was accomplished via a health questionnaire completed during participant recruitment. All participants were from the same unit, but were from three different squads. Volunteers from each squad were randomly assigned to one of two groups. The first group; (BA; 20.1±0.7 years; height: 1.79±0.07 m; weight: 78.3±9.7 kg) consumed 6.0 g of β-alanine per day, while the second group (PL; 20.2±1.1 years; height: 1.80±0.05; weight: 79.6±7.8 kg) consumed 6 g of placebo (rice flour). There were an equal number of participants from each squad that were randomly assigned to either BA or PL.
(§1) Each session required all participants to perform a 4 km run dressed in shorts, T-shirt and running shoes. Immediately following the 4 km run, participants performed five countermovement jumps.
All participants were provided with an individual global positioning system (GPS) that they wore in a vest underneath their shirt. The GPS unit (MinimaxX, V4.3, Catapult Innovations, Victoria, Australia) was positioned in a posterior pocket on the vest situated between the participant's right and left scapula in the upper-thoracic spine region. Information on velocity patterns was recorded during the 4 km run. Peak velocity, mean velocity, distance covered running at slow-moderate speed (<4.44 m·sec-1), distance covered running at high speed (4.44+m·sec-1), and the percent of total distance run at slow-moderate and high speeds were downloaded from the GPS receiver/transmitters. Data was collected at 10 Hz and all analysis was performed with the system software provided by the manufacturer.
(§2) Participants in the supplement group were provided with 2 tablets of sustained-release β-alanine at a dose of 2 g per serving three times per day (total β-alanine intake was 6 g per day) and subjects in the placebo group were provided with an equivalent amount of rice powder. […] Supplementation occurred over a 28 day period.
Data were analyzed using a 2×2 [treatment (BA, PL) X time (pretest, posttest)] mixed factorial ANOVA.

[2] = Description: as §1
Targets were set at a 40-m distance from the firing line and were all headshots. Each shot that hit the target was considered accurate. Twenty targets were set up on the range. All participants were notified prior to the start of data collection which target they were required to shoot at. Immediately following the 120-m sprint, participants continued onto the shooting range and shot 5 times while standing and 5 times from a kneeling position with their assault rifle. Participants were requested to shoot rapidly and accurately. While shooting, each participant was required to handle a misfire in their weapon. The misfire was prearranged by the investigative team, which involved placing an empty bullet into weapon's magazine (weapon's ammunition storage and feeding device). This required the participant to recognize and correct the misfire and continue to deliver fire at the designated target. The designed misfire was set to increase the stress of the shooting, with the participants already fatigued from the 4 km run, jumps and sprint with full gear. The number of accurate shots and the time required to perform these shots was recorded.
as §2

[3] = Pre to Post; p=0.844, ES=0.003
Description: as §1, §2

[4] = 2.5 km run
Description: (§3) Eighteen male soldiers from an elite combat unit volunteered to participate in this double-blind study. […] Screening for performance enhancing drug use and additional supplementation was accomplished via a health questionnaire completed during participant recruitment. Participants were from the same unit, but were from three different squads. Volunteers from each squad were randomly assigned to one of two groups. The randomization procedure involved that each volunteer from the same squad to be alternatively assigned to each group. […] The first group (BA; age 19.6±0.5 years; height: 1.76±0.05 m; body mass: 72.1±4.5 kg) consumed 6.0 g of β-alanine per day, while the second group (PL; age 20.2±1.0 years; height: 1.79±0.08; body mass: 76.4±6.1 kg) consumed 6 g of placebo (rice flour). During the 30-day study period all participants from all squads participated in the same advanced military training tasks that included combat skill development, physical work under pressure, navigational training, self-defense/hand-to-hand combat and conditioning.
(§4) Data collection occurred before (PRE) and following (POST) 30 days of supplementation. During each session participants performed military relevant tasks that included a 2.5 km run, a 1-min sprint, and a 50-m casualty carry. In addition, participants performed repeated 30-m sprints in combat gear (combat vest with ammunition, helmet, and assault rifle). Between each sprint soldiers were tested on marksmanship. Immediately following the final sprint and target shooting, participants performed a 2-min serial subtraction test on the firing range to assess cognitive function under stressful conditions (continuous shooting). These assessments were based upon previously published investigations examining military performance responses during stressful conditions (Nindl, Leone et al. 2002, Harman, Gutekunst et al. 2008).
(§5) These tests simulated a rapid approach to the battlefield. […] During the run and sprint all participants were dressed in shorts, T-shirt and running shoes. Both the run and sprint were performed on an asphalt road. All participants were provided with an individual global positioning system (GPS) that they wore in a vest underneath their shirt. The GPS unit (MinimaxX, V4.3, Catapult Innovations, Victoria, Australia) was positioned in a posterior pocket on the vest situated between the participant's right and left scapula in the upper-thoracic spine region. Information on velocity patterns was recorded during the 2.5 run, as well as total distance run during the 1-min sprint. During the 2.5 km run the velocity of the run was divided into three operationally distinct thresholds and defined as low speed (2.50 m˜s^−1-3.60 m˜s^−1), moderate speed (3.61 m·s^−1-4.43 m·s^−1) or high speed (>4.44 m·sec^−1). In addition, the average velocity and average heart rate during the 2.5 km run were also downloaded from the GPS receiver/transmitters.
as §2, with “of (2” for “of 2”, “per serving)” for “per serving”, “powder. Participants were instructed to consume the supplement following their meals with water.” for “powder.”, “occurred every day” for “occurred”, “a 30-day” for “a 28 day”

[5] = 1-min Sprint
Procedure: as §4, §5
During the 1-min sprint peak velocity, average velocity, total distance, total distance within 90% of peak velocity, and percent decline was downloaded from the GPS receiver/transmitters. All data were collected at 10 Hz and all analyses were performed with the system software provided by the manufacturer.
as §2, with “of (2” for “of 2”, “per serving)” for “per serving”, “powder. Participants were instructed to consume the supplement following their meals with water.” for “powder.”, “occurred every day” for “occurred”, “a 30-day” for “a 28 day”

[6] = for Average Sprint Time / Fatigue rate: Repeat 30-m Sprints
Procedure: as §4
as §2, with “of (2” for “of 2”, “per serving)” for “per serving”, “powder. Participants were instructed to consume the supplement following their meals with water.” for “powder.”, “occurred every day” for “occurred”, “a 30-day” for “a 28 day”

[7] = 30 days, 6 g per day, sustained-release tablets
Description: as §3
Participants in the supplement group were provided with 2 tablets of sustained-release β-alanine at a dose of (2 g per serving) three times per day (total β-alanine intake was 6 g per day) and subjects in the placebo group were provided with an equivalent amount of rice powder. […]

[8] = 30 days, 6 g per day; p=0.048
Procedure: Carnosine content of all participants was assessed by proton magnetic resonance spectroscopy (MRS) in the gastrocnemius muscle. All studies were performed on a 3-T system (Ingenia, Philips Medical Systems, Best, The Netherlands). Single-voxel, STEAM acquisitions of the gastrocnemius medialis muscle of the lower leg were carried out using a transmit-receive (16-channel) coil. In the leg the scan parameters were TR/TM/TE=2000/12/13 ms. Second-order shimming was used giving a full-width-half-maximum line width of approximately 25 Hz in the calf muscle. Water suppression was achieved by applying two bandwidth selective rf pulses. […] The spectra were analyzed using the Philips SpectroView software.
A 1-litre solution of 20 mM L-carnosine (Sigma-Aldrich) in 0.1M potassium phosphate buffer (pH=7.2) was used as an external reference phantom for absolute quantification. […]
The T1, T2 values for the phantom and muscle were taken from Baguet and colleagues (2010). The correction for the coil loading was calculated according to the method previously described (Soher, van Zijl et al. 1996).
Data was analyzed using a 2×2 [treatment (BA, PL) X time (PRE, POST)] repeated measures analysis of variance. […] POST-PRE (A) performance changes were analyzed using an unpaired t test. […] As such, comparisons A carnosine content was analyzed using the non-parametric independent samples median test. […]

[9] = four weeks of ingestion, dosages similar to the present one (Hill et al., 2007); cited from earlier work
[10] = β-alanine taken as a free amino acid; some individuals; cited from earlier work
[11] = Study 1: vertical jump power (five countermovement jumps) after 4-km run; conditions: at Post
[12] = 4-km run, POST (28 days, 6 g per day)

NCCC(=O)O [BA, β-alanine]
% Distance run at High Running Velocity ([1]; 4-km run, POST): 25.4 ± 18.0%
% Distance run at Low to Moderate Running Velocity ([1]; 4-km run, POST): 74.3 ± 18.3%
Average Velocity [1, 12]: 4.13 ± 0.27 m · sec^−1
Peak Velocity [1, 12]: 5.46 ± 0.26 m · sec^−1
% Distance run at High Running Velocity ([1]; 4-km run, PRE): 29.3 ± 16.1%
% Distance run at Low to Moderate Running Velocity ([1]; 4-km run, PRE): 70.8 ± 16.2%
Average Velocity ([1]; 4-km run, PRE): 4.25 ± 0.22 m · sec^−1
Peak Velocity ([1]; 4-km run, PRE (before supplementation), mean ± SD): 5.84 ± 0.63 m · sec^−1
difference between BA and PL in the distance run at a high velocity ([1]; 4-km run, Post, not statistically significant): 34.9%
High Running Velocity (>4.4 m · sec^−1) ([1]; 4-km run, POST): 1009 ± 675
High Running Velocity (>4.4 m · sec^−1) ([1]; 4-km run, PRE): 1166 ± 610
Low-Moderate Running Velocity (<4.4 m · sec^−1) ([1]; 4-km run, POST): 2957 ± 672
Low-Moderate Running Velocity (<4.4 m · sec^−1) ([1]; 4-km run, PRE): 2811 ± 605
4K Run Time ([1]; POST): 962.6 ± 65.0 s
4K Run Time ([1]; PRE): 942.4 ± 39.3 s
difference between the groups in time to perform 10 shots ([2]; BA faster than PL, not statistically different): 24.8%
time to perform 10 shots ([2]; Post, PL 37.7±13.9 sec, p=0.161): 30.2 ± 5.8 s
number of shots on target ([2]; at Post, of 10 shots, 40-m targets, p=0.012 vs PL): 8.2±1.0
serial subtraction test, BA vs PL [3]: no significant interactions
Average Heart Rate ([4]; POST): 165.7 ± 6.1 beats · min^−1
Average Velocity ([4]; POST): 4.09 ± 0.25 m · s^−1
Distance Run at High Intensity ([4]; POST): 23.9 ± 20.1%
Distance Run at Low Intensity ([4]; POST): 10.7 ± 14.0%
Distance Run at Moderate Intensity ([4]; POST): 65.1 ± 14.8%
Time ([4]; POST (30 days, 6 g per day)): 629 ± 23.8 s
Average Heart Rate ([4]; PRE): 156.8 ± 15.5 beats · min^−1
Average Velocity ([4]; PRE): 3.97 ± 0.17 m · s^−1
Distance Run at High Intensity ([4]; PRE): 18.4 ± 12.4%
Distance Run at Low Intensity ([4]; PRE): 12.3 ± 12.0%
Distance Run at Moderate Intensity ([4]; PRE): 69.8 ± 12.1%
Time ([4]; PRE): 624 ± 22.6 s
Average Velocity ([5]; POST): 5.09 ± 0.36 m · s^−1
Distance Run at 90% Peak Velocity ([5]; POST): 58.5 ± 7.7
Fatigue rate ([5]; POST): 30.9 ± 6.7%
Peak Velocity ([5]; POST): 6.57 ± 0.18 m · s^−1
total distance run ([5]; POST): 302.4±21.2 m
Average Velocity ([5]; PRE): 5.21 ± 0.28 m · s^−1
Distance Run at 90% Peak Velocity ([5]; PRE): 69.5 ± 4.1
Fatigue rate ([5]; PRE): 32.5 ± 5.5%
Peak Velocity ([5]; PRE): 6.68 ± 0.36 m · s^−1
total distance run ([5]; PRE): 310.0±16.7 m
Δ time for the 50-m casualty carry vs PL ([6]; 30 days, 6 g per day, p=0.044): significantly (p=0.044) improved
serial subtraction test under stress vs placebo ([6]; 30 days, p=0.022): significantly improve performance
Average Sprint Time ([6]; POST): 8.00 ± 0.29 s
Fatigue rate ([6]; POST): 91.8 ± 3.0%
Average Sprint Time ([6]; PRE): 7.42 ± 0.24 s
Fatigue rate ([6]; PRE): 91.6 ± 4.8%
adverse events [7]: No adverse events were reported
Δ carnosine content within the gastrocnemius muscle vs PL [8]: Significant elevations
elevation of muscle carnosine concentrations [9]: 60%
duration of flushing/tingling of the skin [10]: less than 60 minutes
vertical jump relative mean power [11]: 14.1±1.7 w·kg-1
vertical jump relative peak power vs PL ([11]; p=0.034, ES=0.27): significantly greater
relative mean power, percent greater than PL ([11]; p=0.139, ES 0.14): 10.2%
